The values that follow are results of earlier work, collected in patent US7998959B2, “Modulators of 11-β hydroxyl steroid dehydrogenase type 1, pharmaceutical compositions thereof, and methods of using the same” (Incyte Corporation, priority 2006, dated 2011).

Data set [1] relates to primary hippocampal cells.
Data set [2] has as its system pancreatic islet cells of ob/ob mice.
In another data set the test system is healthy volunteers. Conditions: after seven days of treatment.

Regarding `CC1(C)[C@@H](OC(=O)CCC(=O)O)CC[C@]2(C)[C@H]3C(=O)C=C4[C@@H]5C[C@@](C)(C(=O)O)CC[C@]5(C)CC[C@@]4(C)[C@]3(C)CC[C@@H]12` [carbenoxolone], the “protection from glucocorticoid-mediated exacerbation of excitatory amino acid neurotoxicity” value in data set [1] is reported as “protects the cells from glucocorticoid-mediated exacerbation of excitatory amino acid neurotoxicity”. Also, the glucose-stimulated insulin release result in data set [2] is given as “improves glucose-stimulated insulin release”. In addition, the “negative effects of glucocorticoids on bone nodule formation” value with bone nodule formation is “attenuate the negative effects of glucocorticoids on bone nodule formation”. Also, the IOP reduced in the data set with healthy volunteers is on record as 18%.
